{"source": "patent US9101577B2", "about": "“Analgesic pharmaceutical composition for oral administration” (Warszawski Uniwersytet Medyczny, priority 2011, dated 2015)", "key": {"Male Wistar rats [1]": {"tested_on": "Male Wistar rats", "assay": "Prolonged activity on repeated daily p.o. administration (7 or 10 days), paw withdrawal test (Randall and Selitto)", "type": "in vivo, rat", "details": "for analgesic activity on separate administration, 7 days (codeine study): codeine 175 mg/kg; for pain threshold on separate administration, 7 days (morphine study): morphine 15 mg/kg; for analgesic activity on separate administration, 7 days (oxycodone study): oxycodone 5 mg/kg", "description": "Male Wistar rats (250-300 g) were housed in a room maintained at a temperature of 20±2° C. under 12 h-12 h light-dark cycles. The animals had free access to food and water. Experimental groups consisted of six rats.\nDrugs • Morphine at a dose of 15 mg/kg, codeine at a dose of 175 mg/kg, tramadol at a dose of 125 mg/kg and oxycodone at a dose of 5 mg/kg were dissolved in distilled water; • Dihydrocodeine at a dose of 50 mg/kg was suspended in 1% solution of methylcellulose; • Magnesium lactate (in micronized form)—at a dose of 15 mg magnesium ions/kg (150 mg of magnesium lactate/kg) was suspended in 0.5% solution of methylcellulose; • Magnesium lactate in normal (non-micronized) form—at doses of 15 or 30 mg magnesium ions/kg (150 or 300 mg of magnesium lactate/kg, respectively) was suspended in 0.5% solution of methylcellulose; • Magnesium citrate (in micronized and normal form)—at a dose of 15 mg magnesium ions/kg (112 mg of magnesium citrate/kg) was dissolved in distilled water; • Magnesium hydroaspartate (in micronized and normal form)—at a dose of 15 mg magnesium ions/kg (216 mg of magnesium hydroaspartate/kg) was suspended in 0.5% solution of methylcellulose; • Magnesium chloride (in micronized and normal form)—at a dose of 15 mg magnesium ions/kg (59.5 mg of magnesium chloride/kg) was dissolved in distilled water; • Control animals received a 0.5% solution of methylcellulose, a 1% solution of methylcellulose and distilled water, respectively, according to the same time schedule.\nProlonged activity of the investigated drugs was measured the following day after initial administration, but before the next administration as well as after cessation of administration. Drugs were administered for seven consecutive days (administration of morphine, codeine, dihydrocodeine, oxycodone) or for ten days (administration of tramadol).\nAll drugs were administered per os (p.o.); literally—orally. However, in practice, drugs were administered intragastric via a gastric tube.\nChanges in pain thresholds were determined using a mechanical stimuli—the modification of the classic paw withdrawal test described by Randall and Selitto [1957]. In order to produce mechanical stimulation, progressively increasing pressure was applied to the dorsal surface of the rat's paw using an analgesymeter. The instrument used increased the force on the paw at a rate of 32 grams per second. The nociceptive threshold was defined as force in grams, at which the rat attempted to withdraw its right hindpaw and values of pressure were recorded at this very moment. At least two observers controlled the response.\nNociceptive thresholds (average of two trials) measured for each animal before single administration of investigated drugs (measurement of acute activity) or in day 0 before the first administration (measurement of prolonged activity) constituted the baseline pain threshold—A. Next, measurements of the withdrawal threshold to mechanical stimuli were performed at 5, 15, 30, 60, 90, 120, 180, 240, 300 min after drug administration (measurements of acute activity) or every day before drug administration (measurements of prolonged activity)—B.\nIn all experimental sessions (i.e. every day, each drug investigated) values of thresholds obtained (B) were compared to baseline (A).\nChanges in pain threshold were calculated as a percent of baseline value according to the following formula:\n[formula] • C—% of analgesia; A—pressure (in g), baseline pain threshold; B—pressure (in g) in consecutive measurements.\nPercents of analgesia values calculated as above for individual animals were subsequently used to calculate average values in particular experimental groups and for statistical analysis.\nThe results are expressed as mean values±standard […] of the mean (±S.E.M.). The statistical significance of differences between groups was evaluated by Student's t-test. p≦0.05 was accepted as statistically significant."}, "Male Wistar rats [2]": {"tested_on": "Male Wistar rats", "assay": "Acute activity after single p.o. administration, paw withdrawal test (Randall and Selitto), % of analgesia", "type": "in vivo, rat", "details": "for analgesic activity on separate administration (codeine study): codeine 175 mg/kg; for analgesic activity / pain threshold when administered alone (morphine study): morphine 15 mg/kg; for analgesic activity on separate administration (oxycodone study): oxycodone 5 mg/kg"}, "[3]": {"details": "15 mg magnesium ions/kg p.o. with codeine 175 mg/kg p.o., 7 days"}, "[4]": {"details": "15 mg magnesium ions/kg p.o. with dihydrocodeine 50 mg/kg p.o., 7 days"}, "[5]": {"details": "15 mg magnesium ions/kg p.o. with morphine 15 mg/kg p.o., 7 days"}, "[6]": {"details": "15 mg magnesium ions/kg p.o. with tramadol 125 mg/kg p.o., 10 consecutive days"}, "[7]": {"details": "separate administration p.o., magnesium lactate micronized 15 or normal 30 mg magnesium ions/kg"}, "[8]": {"details": "single administration, 15 mg magnesium ions/kg p.o. with dihydrocodeine 50 mg/kg p.o."}, "[9]": {"details": "single administration, 15 mg magnesium ions/kg p.o. with morphine 15 mg/kg p.o."}, "[10]": {"details": "single administration, 15 mg magnesium ions/kg p.o. with oxycodone 5 mg/kg p.o."}, "[11]": {"details": "single administration, 15 mg magnesium ions/kg p.o. with tramadol 125 mg/kg p.o."}, "[12]": {"details": "single separate administration p.o., magnesium salts 15 mg magnesium ions/kg"}, "[13]": {"details": "15 mg magnesium ions/kg p.o. with oxycodone 5 mg/kg p.o., 7 consecutive days"}}}
{"compound": "CC(O)C(=O)[O-].CC(O)C(=O)[O-].[Mg+2]", "note": "(stereo not shown) [micronized magnesium lactate, Magnesium lactate]", "values": [{"measurement": "course of enhancement of codeine analgesia", "setting": "Male Wistar rats [1]; [3]", "result": "reached a maximum on days 6 and 7"}, {"measurement": "day on which enhancement of codeine analgesia began", "setting": "Male Wistar rats [1]; [3]", "result": "fourth"}, {"measurement": "effect on analgesic activity of chronically administered codeine", "setting": "Male Wistar rats [1]; [3]", "result": "also enhanced analgesic activity of chronically administered codeine"}, {"measurement": "activity after cessation of drug administration (codeine study)", "setting": "Male Wistar rats [1]; 15 mg magnesium ions/kg p.o. with codeine 175 mg/kg p.o., days 8-10", "result": "rapidly decreased"}, {"measurement": "course of enhancement of dihydrocodeine analgesia", "setting": "Male Wistar rats [1]; [4]", "result": "reached a maximum on days 6 and 7"}, {"measurement": "day on which enhancement of dihydrocodeine analgesia began", "setting": "Male Wistar rats [1]; [4]", "result": "fourth"}, {"measurement": "effect on analgesic activity of chronically administered dihydrocodeine", "setting": "Male Wistar rats [1]; [4]", "result": "gradually enhanced the analgesic activity of chronically administered dihydrocodeine"}, {"measurement": "pain threshold after cessation of drug administration (dihydrocodeine study)", "setting": "Male Wistar rats [1]; 15 mg magnesium ions/kg p.o. with dihydrocodeine 50 mg/kg p.o., days 8-10", "result": "the pain threshold rapidly reduced to control values"}, {"measurement": "course of enhancement of morphine analgesia", "setting": "Male Wistar rats [1]; [5]", "result": "grew gradually to 7 day"}, {"measurement": "day on which enhancement of morphine analgesia began", "setting": "Male Wistar rats [1]; [5]", "result": 3, "unit": "days"}, {"measurement": "effect on analgesic activity of morphine, 7-day administration", "setting": "Male Wistar rats [1]; [5]", "result": "also enhanced the analgesic activity of morphine"}, {"measurement": "pain threshold after cessation of drug administration (morphine study)", "setting": "Male Wistar rats [1]; 15 mg magnesium ions/kg p.o. with morphine 15 mg/kg p.o., days 8-10", "result": "gradual return to baseline values"}, {"measurement": "course of enhancement of tramadol analgesia", "setting": "Male Wistar rats [1]; [6]", "result": "gradually increased (to day 7), and then was maintained to day 10"}, {"measurement": "day on which enhancement of tramadol analgesia began", "setting": "Male Wistar rats [1]; [6]", "result": "third"}, {"measurement": "effect on long-term analgesic activity of tramadol", "setting": "Male Wistar rats [1]; [6]", "result": "enhanced the long-term analgesic activity of the examined opioid"}, {"measurement": "pain threshold after removal of the tested substances (tramadol study)", "setting": "Male Wistar rats [1]; 15 mg magnesium ions/kg p.o. with tramadol 125 mg/kg p.o., days 11-12", "result": "the pain threshold returned to control values by day 11"}, {"measurement": "analgesic activity on separate administration, 7 days (codeine study)", "setting": "Male Wistar rats [1]; [7]", "result": "did not exhibit analgesic activity"}, {"measurement": "pain threshold on separate administration, 7 days (dihydrocodeine study)", "setting": "Male Wistar rats [1]; separate administration p.o., dihydrocodeine 50 mg/kg, magnesium lactate micronized 15 or normal 30 mg magnesium ions/kg", "result": "did not alter the pain threshold"}, {"measurement": "pain threshold on separate administration, 7 days (morphine study)", "setting": "Male Wistar rats [1]; [7]", "result": "did not alter the pain threshold"}, {"measurement": "analgesic activity on separate administration, 7 days (oxycodone study)", "setting": "Male Wistar rats [1]; [7]", "result": "did not exhibit analgesic activity"}, {"measurement": "pain threshold on separate administration, 10 days (tramadol study)", "setting": "Male Wistar rats [1]; separate administration p.o., tramadol 125 mg/kg, magnesium lactate micronized 15 or normal 30 mg magnesium ions/kg", "result": "did not alter the pain threshold"}, {"measurement": "effect on analgesic activity of codeine", "setting": "Male Wistar rats [2]; single administration, 15 mg magnesium ions/kg p.o. with codeine 175 mg/kg p.o.", "result": "significantly enhanced the analgesic activity of codeine"}, {"measurement": "effect on dihydrocodeine analgesia", "setting": "Male Wistar rats [2]; [8]", "result": "significantly enhanced dihydrocodeine analgesia"}, {"measurement": "time course of activity on dihydrocodeine analgesia", "setting": "Male Wistar rats [2]; [8]", "result": "gradually increased and reached a maximum between min 45 and 90 of the measurements and then became weaker by min 210"}, {"measurement": "effect on morphine analgesia", "setting": "Male Wistar rats [2]; [9]", "result": "significantly enhanced morphine analgesia"}, {"measurement": "enhancement of morphine analgesia lasted up to", "setting": "Male Wistar rats [2]; [9]", "result": 240, "unit": "min"}, {"measurement": "time at which enhancement of morphine analgesia appeared", "setting": "Male Wistar rats [2]; [9]", "result": 30, "unit": "min"}, {"measurement": "effect on oxycodone analgesia", "setting": "Male Wistar rats [2]; [10]", "result": "significantly enhanced oxycodone analgesia"}, {"measurement": "time at which activity on oxycodone analgesia appeared", "setting": "Male Wistar rats [2]; [10]", "result": 5, "unit": "min"}, {"measurement": "time course of activity on oxycodone analgesia", "setting": "Male Wistar rats [2]; [10]", "result": "maintained at a constant level up to min 30 of the study, then became weaker in min 45 and disappeared in min 60"}, {"measurement": "effect on antinociceptive activity of tramadol", "setting": "Male Wistar rats [2]; [11]", "result": "increased antynociceptive activity of tramadol"}, {"measurement": "analgesic activity on separate administration (codeine study)", "setting": "Male Wistar rats [2]; [12]", "result": "did not exhibit analgesic activity"}, {"measurement": "analgesic activity / pain perception threshold on separate administration (dihydrocodeine study)", "setting": "Male Wistar rats [2]; single separate administration p.o., dihydrocodeine 50 mg/kg, magnesium salts 15 mg magnesium ions/kg", "result": "did not exhibit analgesic activity"}, {"measurement": "analgesic activity / pain threshold when administered alone (morphine study)", "setting": "Male Wistar rats [2]; [12]", "result": "Neither morphine nor magnesium lactate and chloride in micronized or normal form administered alone showed analgesic activity"}, {"measurement": "analgesic activity on separate administration (oxycodone study)", "setting": "Male Wistar rats [2]; [12]", "result": "showed no analgesic activity"}, {"measurement": "analgesic activity on separate administration (tramadol study)", "setting": "Male Wistar rats [2]; single separate administration p.o., tramadol 125 mg/kg, magnesium salts 15 mg magnesium ions/kg", "result": "did not exhibit analgesic activity"}]}
{"compound": "COc1ccc2c3c1O[C@H]1[C@@H](O)C=C[C@H]4[C@@H](C2)N(C)CC[C@@]341", "note": "[codeine, reference compound]", "values": [{"measurement": "analgesic activity on separate administration, 7 days (codeine study)", "setting": "Male Wistar rats [1]; [7]", "result": "did not exhibit analgesic activity"}, {"measurement": "analgesic activity on separate administration (codeine study)", "setting": "Male Wistar rats [2]; [12]", "result": "did not exhibit analgesic activity"}]}
{"compound": "CC(O)C(=O)[O-].CC(O)C(=O)[O-].[Mg+2]", "note": "(stereo not shown) [magnesium lactate, Magnesium lactate]", "values": [{"measurement": "pain threshold one day after removal of the tested substances (oxycodone study)", "setting": "Male Wistar rats [1]; 15 mg magnesium ions/kg p.o. with oxycodone 5 mg/kg p.o.", "result": "rapid return of the pain threshold to control values"}, {"measurement": "course of enhancement of oxycodone analgesia", "setting": "Male Wistar rats [1]; [13]", "result": "reached its maximum on days 6 and 7"}, {"measurement": "day on which enhancement of oxycodone analgesia began", "setting": "Male Wistar rats [1]; [13]", "result": "third"}, {"measurement": "effect on long-term analgesic activity of oxycodone", "setting": "Male Wistar rats [1]; [13]", "result": "enhanced the long-term analgesic activity of the examined opioid"}, {"measurement": "enhancement of tramadol analgesia lasted until", "setting": "Male Wistar rats [2]; [11]", "result": 45, "unit": "min"}, {"measurement": "time at which enhancement of tramadol analgesia appeared", "setting": "Male Wistar rats [2]; [11]", "result": 5, "unit": "min"}, {"measurement": "time of maximum activity on tramadol analgesia", "setting": "Male Wistar rats [2]; [11]", "result": 15, "unit": "min"}]}
{"compound": "COc1ccc2c3c1O[C@H]1C(=O)CC[C@@]4(O)[C@@H](C2)N(C)CC[C@]314", "note": "[oxycodone, reference compound]", "values": [{"measurement": "analgesic activity on separate administration, 7 days (oxycodone study)", "setting": "Male Wistar rats [1]; [7]", "result": "did not exhibit analgesic activity"}, {"measurement": "analgesic activity on separate administration (oxycodone study)", "setting": "Male Wistar rats [2]; [12]", "result": "showed no analgesic activity"}]}
{"compound": "CN1CC[C@]23c4c5ccc(O)c4O[C@H]2[C@@H](O)C=C[C@H]3[C@H]1C5", "note": "[morphine, reference compound]", "values": [{"measurement": "pain threshold on separate administration, 7 days (morphine study)", "setting": "Male Wistar rats [1]; [7]", "result": "slightly increased the threshold for mechanical nociceptive stimuli"}, {"measurement": "analgesic activity / pain threshold when administered alone (morphine study)", "setting": "Male Wistar rats [2]; [12]", "result": "Neither morphine nor magnesium lactate and chloride in micronized or normal form administered alone showed analgesic activity"}]}
